Experimental data reported in patent publication US4005132A, “Process for reacting trialkyl boranes with compounds containing protons” (Studiengesellschaft Kohle m.b.H., priority 1971, dated 1977).

Legend:
[1] = Solubility of diethylborylated sugars and polysaccharides; format: physicochemical
[2] = Thermal stability (vacuum distillation / decomposition on heating); format: physicochemical

| solubility in hydrocarbons [1] | stability on distillation under high vacuum ([2]; high vacuum, 136° C.) | stability on vacuum distillation [2] | Structure (SMILES) | solubility in aliphatic and aromatic hydrocarbons and in carbon tetrachloride ([1]; aliphatic and aromatic hydrocarbons and carbon tetrachloride) | Decomposition of the compound begins at ([2]; with evolution of triethyl borane) |
| --- | --- | --- | --- | --- | --- |
| very readily soluble | without decomposition | without decomposition | CCB(CC)OC[C@H]1OC(OB(CC)CC)[C@H](OB(CC)CC)[C@@H](OB(CC)CC)[C@@H]1OB(CC)CC (single isomer, unassigned) [1,2,3,4,5-Pentakis-diethyl-boryl-D(+)-glucose] |  |  |
|  |  |  | CCB(CC)OC[C@H]1O[C@@H]2O[C@H]3[C@H](OB(CC)CC)[C@@H](OB(CC)CC)[C@@H](O[C@H]4[C@H](OB(CC)CC)[C@@H](OB(CC)CC)[C@@H](O[C@H]5[C@H](OB(CC)CC)[C@@H](OB(CC)CC)[C@@H](O[C@H]6[C@H](OB(CC)CC)[C@@H](OB(CC)CC)[C@@H](O[C@H]7[C@H](OB(CC)CC)[C@@H](OB(CC)CC)[C@@H](O[C@H]8[C@H](OB(CC)CC)[C@@H](OB(CC)CC)[C@@H](O[C@H]1[C@H](OB(CC)CC)[C@H]2OB(CC)CC)O[C@@H]8COB(CC)CC)O[C@@H]7COB(CC)CC)O[C@@H]6COB(CC)CC)O[C@@H]5COB(CC)CC)O[C@@H]4COB(CC)CC)O[C@@H]3COB(CC)CC [(I), Per-O-diethylboryl-cyclohepta-amylose] | soluble | 141 °C |
| very readily soluble |  | without decomposition | CCB(CC)OC[C@H]1O[C@H](OC)[C@H](OB(CC)CC)[C@@H](OB(CC)CC)[C@@H]1OB(CC)CC [2,3,4,6-tetrakis(diethylboryl)-α-methyl-D-(+)-glucoside] |  |  |
| very readily soluble |  | without decomposition | CCB(CC)OC[C@H](OB(CC)CC)[C@H]1OC(=O)C(OB(CC)CC)=C1OB(CC)CC [2.3.5.6-Tetrakis-diethylboryl-L(+)-ascorbic acid] |  |  |
